Data on five compounds can be found in paper PMC10905675, “INX-315, a Selective CDK2 Inhibitor, Induces Cell Cycle Arrest and Senescence in Solid Tumors” (Cancer Discovery, 2023).

Broadly, the half-life is the time needed for the level to fall by half in the phase considered.

Data set [1] deals with palbociclib-resistant MCF7 cells. In words: CellTiter Glo viability assay. The settings on record: Homo sapiens, MCF7, Supp Fig S9B, CDK4/6 inhibitor monotherapy; read-out: IC50. It counts as cell-based. The procedure:
(§1) An exception to this is MCF7PDRCl5-1 cells which were first cultured for 5 days without palbociclib then plated as described. MCF7PDRCl5-1 cells were treated with either a dose curve of the indicated CDK4/6i or a dose curve of INX-315 + 1 µmol/L of the indicated CDK4/6i. Cell viability was determined using the CellTiter-Glo assay (Promega, G9241) following manufacturer's instructions. Plates were processed on either BioTek Synergy2 multi-mode (Agilent) or ClarioSTAR (BMG Labtech) plate readers. T47D and MCF7 cells were seeded into […] plates using BioTek 406 (Aglient) and treated with a ten-point dose concentration from 10 µmol/L to 0.3 nmol/L of INX-315 for 2× doubling times. Plates were fixed with 4% PFA and stained with Rhodamine-Phalloidin (Bio-Trend, 00027) and DAPI (5 mg/mL, Invitrogen, catalog no. D1306). Plates were imaged using CellInsight CX7 LZR and DAPI-positive cells were counted using Thermo Fisher Scientific HCS Studio Cell Analysis Software.

Another data set addresses T1, CDK7 (Homo sapiens, UniProt P50613).
T1 construct: purchased Carna 04-108
Description: Nanosyn biochemical assay. The settings on record: ATP at Km, value (SEM), read-out: IC50 (nmol/L) CDK7. The procedure: (§2) Compounds were tested in kinase assays (Nanosyn, Inc.). The assays were completed using microfluidic kinase detection technology (Caliper Assay Platform). The compounds were tested in 12-point dose–response format in singlicate at the Km for ATP. Phosphoacceptor substrate peptide concentration used was 1 µmol/L and staurosporine was used as the reference compound for all assays. Details for individual Nanosyn assays performed are provided here: […]

For a further data set, the target named is T2, CDK5 (Homo sapiens, UniProt Q00535).
T2 construct: purchased ThermoFisher PV3000
Description: Nanosyn biochemical assay. The settings on record: ATP at Km, value (SEM), read-out: IC50 (nmol/L) CDK5. As to the method:
as §2

Data set [2] concerns the target T3, CDK1/cyclin B1 (Homo sapiens, UniProt P06493).
T3 construct: purchased Millipore 14-450M
Description: Nanosyn biochemical assay. Particulars: value (SEM). As to the method:
as §2

The target of the next data set is T4, CDK2/cyclin A2 (Homo sapiens, UniProt P24941).
T4 construct: purchased Millipore 14-448
Description: Nanosyn biochemical assay. Particulars: ATP at Km, value (SEM), read-out: IC50 (nmol/L) CDK2/cyclin A2. The procedure:
as §2

The next data set addresses T5, CDK6/cyclin D3 (Homo sapiens, UniProt Q00534).
T5 construct: purchased Carna 04-107
Description: Nanosyn biochemical assay. The settings on record: value (SEM). The procedure: as §2

The next data set addresses T6, CDK2/cyclin E1 (Homo sapiens, UniProt P24941).
T6 construct: purchased Millipore 14-475
In words: Nanosyn biochemical assay. The settings on record: Nanosyn, ATP at Km; value (SEM); read-out: IC50 (nmol/L) CDK2/cyclin E1. The procedure:
as §2

Data set [3] is described as follows: Microsomal stability assay. It counts as in vitro ADME. As to the method: Microsomal stability was determined by Absorption Systems (Exton, PA). INX-315 was tested in mixed-gender human liver microsomes (Lot #1010420), male Sprague-Dawley rat liver microsomes (Lot #1910100), male CD-1 mouse liver microsomes (Lot #2010017), and male beagle dog liver microsomes (Lot #2010046) were purchased from XenoTech/BioIVT by Absorption Systems. The reaction mixture, minus NADPH, was prepared as described below. The test article was added into the reaction mixture at a final concentration of 1 µmol/L. The control compound, testosterone, was run simultaneously with the test article in a separate reaction. The reaction mixture (without cofactor) was equilibrated in a shaking water bath at 37°C for 5 minutes. The reaction was initiated by the addition of the cofactor, and the mixture was incubated in a shaking water bath at 37°C. Aliquots (100 µL) were withdrawn at 0, 10, 20, 30, and 60 minutes. Test article and testosterone samples were immediately combined with 400 µL of ice-cold 50/50 acetonitrile (ACN)/H2O containing 0.1% formic acid and internal standard to terminate the reaction. The samples were then mixed and centrifuged to precipitate proteins. All samples were assayed by LC-MS/MS using electrospray ionization. The peak area response ratio (PARR) of analyte to internal standard at each time point was compared to the PARR at time 0 to determine the percent remaining at each time point. Half-lives and clearance were calculated using GraphPad software (RRID:SCR_002798), fitting to a single-phase exponential decay equation.

A further data set addresses T7, CDK5/p25 (Homo sapiens, UniProt Q00535).
T7 construct: purchased BPS 40105
Description: Nanosyn biochemical assay. Particulars: ATP at Km, value (SEM), read-out: IC50 (nmol/L) CDK5/p25. As to the method: as §2

Data set [4] addresses T8, CDK9/cyclin T1 (Homo sapiens, UniProt P50750).
T8 construct: purchased Carna 04-110
Description: Nanosyn biochemical assay. Particulars: value (SEM). The procedure:
as §2

The target of data set [5] is T8, CDK9/cyclin T1. In words: NanoBRET live cell target engagement. Particulars: Supp Fig S1E, NanoBRET; read-out: Intracellular IC50 (nM) CDK9/T1. It counts as binding. As to the method:
(§3) Reaction Bio (Malvern, PA) conducted NanoBRET assays utilizing Promega NanoLuc technology with two replicates per experiment. The CDK2/E1 and CDK1/B1 values are the average of two separate experiments.
(§4) HEK293 cells were transfected using Opti-MEM without serum containing ratios of 9.0 µg/mL of Transfection Carrier DNA, 1.0 µg/mL of NanoLuc fusion vector DNA and 1 mL of Opti-MEM without phenol red. 30 µL of FuGENE HD transfection reagent was added to each milliliter of DNA mixture to form lipid:DNA complex. After incubation for 20 minutes at room temperature, 1 part lipid/DNA complex was added to 20 parts HEK293 cells in suspension. Cells were then plated and incubated overnight before being trypsinized and resuspended at 2 × 10^5 cells/mL. NanoBRET tracer reagent was added to cells at a ratio of 1 part tracer to 20 parts cell suspension. Cells were added to a 384-well plate and incubated for 1 hour. Plates were removed and incubated at room temperature for 15 minutes to equilibrate before 3x complete substrate plus inhibitor was added. After 2–3 minutes of incubation at room temperature, donor and acceptor wavelengths (460 nm and 600 nm, respectively) were measured using an Envision 2104 plate reader.

Data set [6] deals with T3, CDK1/cyclin B1. Description: NanoBRET live cell target engagement. It counts as binding. Particulars: Supp Fig S1E, NanoBRET; read-out: Intracellular IC50 (nM) CDK1/B1. The procedure:
as §3, §4

The subject of the next data set is MCF7 Fulv-resistant. Description: Cell number dose-response. It counts as cell-based. Particulars: Supp Fig S7D, Fulv-Resistant in 100 nM fulvestrant, 7 days; read-out: IC50 (nM) MCF7.
Source text: (§5) MCF7 abemaciclib-resistant cells were generated by continuous treatment with abemaciclib at a concentration of 250 nmol/L for 72 days, followed by 500 nmol/L for 48 days. MCF7 fulvestrant-resistant cells were generated by continuous treatment of 100 nmol/L Fulvestrant for 125 days. MCF7 abemaciclib/fulvestrant-resistant cells were generated by treating abemaciclib-resistant cells continuously with 100 nmol/L fulvestrant for 137 days. T47D abemaciclib-resistant lines were generated by continuous treatment with abemaciclib at a concentration of 500 nmol/L for 73 days. T47D fulvestrant–resistant cells were generated by continuous treatment with 100 nmol/L fulvestrant for 68 days. T47D abemaciclib/fulvestrant-resistant cells were generated by treating abemaciclib-resistant cells with continuous treatment of 100 nmol/L Fulvestrant for 60 days. Resistant cell lines were cultured in medium containing drug(s) that the line is resistant to and further authenticated using short tandem repeat profiling.
as §1

A further data set has as its system MCF7 Parent. In words: Cell number dose-response. It counts as cell-based. The settings on record: Supp Fig S7D, 7 days, read-out: IC50 (nM) MCF7.
Source text: as §5, §1

In the next data set the test system is MCF7 Abema-resistant. Description: Cell number dose-response. It counts as cell-based. The settings on record: Supp Fig S7D, Abema-Resistant in 500 nM abemaciclib, 7 days; read-out: IC50 (nM) MCF7.
Source text: as §5, §1

In data set [7] the test system is all CCNE1-amplified lines. Description: CellTiter Glo viability assay. It counts as cell-based. The settings on record: all CCNE1-amplified lines, INX-315 vs PF-07104091, 6 days. As to the method: as §1
In general terms: In ATP-based viability assays light output follows the ATP content of the culture.

Another data set deals with T9, CDK4/cyclin D1 (Homo sapiens, UniProt P11802).
T9 construct: purchased ThermoFisher PV4400
Description: Nanosyn biochemical assay. The settings on record: ATP at Km, value (SEM), read-out: IC50 (nmol/L) CDK4/cyclin D1. The procedure:
as §2

For a further data set, the target named is T10, CDK3/cyclin E1 (Homo sapiens, UniProt Q00526).
T10 construct: purchased BPS 40103
Description: Nanosyn biochemical assay. Particulars: ATP at Km, value (SEM), read-out: IC50 (nmol/L) CDK3/cyclin E1. As to the method:
as §2

Setting [8] is: ATP at Km, read-out: IC50 (nmol/L) CDK1/cyclin B1.
The mark [9] stands for this setting: ATP at Km, read-out: IC50 (nmol/L) CDK6/cyclin D3.
[10] abbreviates: both sexes, human, liver microsomes, 1 µmol/L, 60 min incubation, read-out: Half-life.
Where [11] appears, read: male, CD-1, liver microsomes, Mouse microsomes, 60 min incubation.
Where [12] appears, read: male, Sprague-Dawley, rat, liver microsomes, 1 µmol/L, 60 min incubation, read-out: Half-life.
Setting [13] is: male, beagle, dog, liver microsomes, 1 µmol/L, 60 min incubation, read-out: Half-life.

SMILES strings stand for the structures. Where two headings read alike, the source gives them in different places.

T2 sequence (Q00535 whole entry): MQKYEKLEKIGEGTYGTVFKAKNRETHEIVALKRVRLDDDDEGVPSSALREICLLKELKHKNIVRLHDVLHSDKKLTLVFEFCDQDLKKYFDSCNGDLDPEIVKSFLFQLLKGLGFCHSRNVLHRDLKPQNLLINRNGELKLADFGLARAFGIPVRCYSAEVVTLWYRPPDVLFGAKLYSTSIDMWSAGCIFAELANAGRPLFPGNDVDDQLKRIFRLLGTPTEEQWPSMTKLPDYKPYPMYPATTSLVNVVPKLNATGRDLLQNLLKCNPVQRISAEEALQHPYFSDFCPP
T2 sequence (Q15078 2-307 partner limits assumed): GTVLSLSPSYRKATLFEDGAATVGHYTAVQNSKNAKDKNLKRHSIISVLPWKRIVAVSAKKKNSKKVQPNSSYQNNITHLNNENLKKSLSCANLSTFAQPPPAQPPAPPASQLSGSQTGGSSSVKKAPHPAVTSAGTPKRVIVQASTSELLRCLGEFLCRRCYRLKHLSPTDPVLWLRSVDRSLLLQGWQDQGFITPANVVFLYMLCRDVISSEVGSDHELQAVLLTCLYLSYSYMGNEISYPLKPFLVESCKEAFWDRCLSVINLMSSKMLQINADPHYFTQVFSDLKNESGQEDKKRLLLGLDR
T8 sequence (P50750 whole entry): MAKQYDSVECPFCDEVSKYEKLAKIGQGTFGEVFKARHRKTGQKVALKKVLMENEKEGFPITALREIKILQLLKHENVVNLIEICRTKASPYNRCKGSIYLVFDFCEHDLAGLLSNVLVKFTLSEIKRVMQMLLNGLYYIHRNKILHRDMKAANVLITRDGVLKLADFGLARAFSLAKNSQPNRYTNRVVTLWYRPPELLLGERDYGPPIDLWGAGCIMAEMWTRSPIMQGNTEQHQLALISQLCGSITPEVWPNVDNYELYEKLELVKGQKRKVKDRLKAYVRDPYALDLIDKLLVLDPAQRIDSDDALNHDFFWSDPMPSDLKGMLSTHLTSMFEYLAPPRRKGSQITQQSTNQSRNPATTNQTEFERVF
T8 sequence (O60563 whole entry partner): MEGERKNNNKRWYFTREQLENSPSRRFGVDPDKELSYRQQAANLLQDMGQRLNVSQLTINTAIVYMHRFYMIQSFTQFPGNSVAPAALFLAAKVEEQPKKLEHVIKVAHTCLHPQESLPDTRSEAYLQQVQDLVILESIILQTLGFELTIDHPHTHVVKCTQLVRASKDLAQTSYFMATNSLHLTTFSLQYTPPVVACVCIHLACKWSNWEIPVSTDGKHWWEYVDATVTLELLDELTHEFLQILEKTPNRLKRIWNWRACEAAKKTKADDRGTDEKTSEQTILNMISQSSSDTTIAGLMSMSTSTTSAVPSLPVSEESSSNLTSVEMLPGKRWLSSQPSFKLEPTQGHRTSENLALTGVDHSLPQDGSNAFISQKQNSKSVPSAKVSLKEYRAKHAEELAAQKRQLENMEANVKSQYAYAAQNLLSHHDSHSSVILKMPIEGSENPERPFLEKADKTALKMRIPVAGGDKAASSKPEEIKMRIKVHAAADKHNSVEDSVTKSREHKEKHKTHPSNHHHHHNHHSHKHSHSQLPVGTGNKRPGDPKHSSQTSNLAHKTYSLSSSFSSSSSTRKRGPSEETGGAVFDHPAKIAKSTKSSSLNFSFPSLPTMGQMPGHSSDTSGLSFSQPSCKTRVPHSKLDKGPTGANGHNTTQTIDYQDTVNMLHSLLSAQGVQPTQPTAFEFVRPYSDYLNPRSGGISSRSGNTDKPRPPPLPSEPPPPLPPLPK
T1 sequence (P50613 whole entry): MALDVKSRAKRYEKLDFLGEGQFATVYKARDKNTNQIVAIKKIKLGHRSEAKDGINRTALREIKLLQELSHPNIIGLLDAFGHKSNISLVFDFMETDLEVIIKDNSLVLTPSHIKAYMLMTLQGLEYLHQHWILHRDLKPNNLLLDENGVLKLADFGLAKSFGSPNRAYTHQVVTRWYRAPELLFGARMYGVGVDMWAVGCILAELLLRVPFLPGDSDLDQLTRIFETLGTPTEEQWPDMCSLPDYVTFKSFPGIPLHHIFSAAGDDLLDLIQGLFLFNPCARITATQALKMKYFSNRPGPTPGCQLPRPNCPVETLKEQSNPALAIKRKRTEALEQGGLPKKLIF
T1 sequence (P51946 whole entry partner): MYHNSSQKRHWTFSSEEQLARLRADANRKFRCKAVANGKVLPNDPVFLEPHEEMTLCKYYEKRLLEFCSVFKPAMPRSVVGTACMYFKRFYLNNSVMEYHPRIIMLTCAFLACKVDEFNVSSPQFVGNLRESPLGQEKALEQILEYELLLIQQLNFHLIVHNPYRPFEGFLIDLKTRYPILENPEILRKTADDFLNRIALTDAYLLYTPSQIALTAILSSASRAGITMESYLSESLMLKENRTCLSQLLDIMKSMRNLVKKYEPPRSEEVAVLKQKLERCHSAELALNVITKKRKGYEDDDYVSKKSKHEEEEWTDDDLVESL
T1 sequence (P51948 whole entry partner): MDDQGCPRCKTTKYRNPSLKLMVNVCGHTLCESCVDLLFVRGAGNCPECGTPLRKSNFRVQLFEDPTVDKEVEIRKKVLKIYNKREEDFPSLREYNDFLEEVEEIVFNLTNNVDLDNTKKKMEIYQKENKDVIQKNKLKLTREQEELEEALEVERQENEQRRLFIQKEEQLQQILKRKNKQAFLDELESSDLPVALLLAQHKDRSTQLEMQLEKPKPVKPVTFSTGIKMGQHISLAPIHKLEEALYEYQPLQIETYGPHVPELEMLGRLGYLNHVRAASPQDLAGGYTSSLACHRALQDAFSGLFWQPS
T3 sequence (P06493 whole entry): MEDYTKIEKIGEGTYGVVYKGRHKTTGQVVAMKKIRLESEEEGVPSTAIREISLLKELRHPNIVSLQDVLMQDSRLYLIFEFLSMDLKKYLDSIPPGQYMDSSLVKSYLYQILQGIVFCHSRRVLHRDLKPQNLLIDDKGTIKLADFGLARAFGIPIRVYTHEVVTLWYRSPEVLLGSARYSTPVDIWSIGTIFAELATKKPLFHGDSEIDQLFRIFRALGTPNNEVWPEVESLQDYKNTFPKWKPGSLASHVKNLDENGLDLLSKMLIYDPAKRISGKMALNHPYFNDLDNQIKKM
T3 sequence (P14635 whole entry partner): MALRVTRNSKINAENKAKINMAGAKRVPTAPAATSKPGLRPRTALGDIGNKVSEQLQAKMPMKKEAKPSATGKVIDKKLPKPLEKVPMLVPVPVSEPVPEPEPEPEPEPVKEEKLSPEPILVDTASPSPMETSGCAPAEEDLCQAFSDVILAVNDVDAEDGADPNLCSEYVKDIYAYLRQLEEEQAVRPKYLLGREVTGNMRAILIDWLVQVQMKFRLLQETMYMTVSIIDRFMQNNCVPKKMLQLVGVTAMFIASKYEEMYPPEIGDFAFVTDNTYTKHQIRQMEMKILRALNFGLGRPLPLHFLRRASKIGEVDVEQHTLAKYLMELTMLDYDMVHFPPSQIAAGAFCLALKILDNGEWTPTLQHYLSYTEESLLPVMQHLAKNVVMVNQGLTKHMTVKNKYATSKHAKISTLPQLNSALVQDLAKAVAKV
T5 sequence (Q00534 whole entry): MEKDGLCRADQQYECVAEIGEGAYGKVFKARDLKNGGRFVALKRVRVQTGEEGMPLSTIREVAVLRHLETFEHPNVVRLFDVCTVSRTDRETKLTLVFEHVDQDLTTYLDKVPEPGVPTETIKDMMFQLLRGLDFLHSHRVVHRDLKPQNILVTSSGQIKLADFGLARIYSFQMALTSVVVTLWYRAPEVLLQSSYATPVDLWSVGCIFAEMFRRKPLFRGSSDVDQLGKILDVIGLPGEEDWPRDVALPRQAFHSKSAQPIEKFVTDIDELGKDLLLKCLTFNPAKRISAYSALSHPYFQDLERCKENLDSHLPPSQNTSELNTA
T5 sequence (P30281 whole entry partner): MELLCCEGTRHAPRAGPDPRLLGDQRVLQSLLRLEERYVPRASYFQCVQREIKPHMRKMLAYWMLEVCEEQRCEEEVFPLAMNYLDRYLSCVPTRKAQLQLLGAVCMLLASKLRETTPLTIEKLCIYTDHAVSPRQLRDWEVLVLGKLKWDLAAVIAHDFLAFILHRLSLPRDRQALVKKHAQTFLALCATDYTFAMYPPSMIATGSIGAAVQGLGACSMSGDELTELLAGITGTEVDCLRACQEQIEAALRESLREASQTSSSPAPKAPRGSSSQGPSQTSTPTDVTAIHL
T7 sequence (Q00535 whole entry): as the sequence (Q00535 whole entry) above
T7 sequence (Q15078 99-307 partner limits assumed): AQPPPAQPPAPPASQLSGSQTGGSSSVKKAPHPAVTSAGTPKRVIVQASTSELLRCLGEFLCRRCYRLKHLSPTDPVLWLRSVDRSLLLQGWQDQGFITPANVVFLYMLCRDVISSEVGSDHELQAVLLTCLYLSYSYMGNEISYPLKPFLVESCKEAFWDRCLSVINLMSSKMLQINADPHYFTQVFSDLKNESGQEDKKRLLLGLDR

Regarding `CC(C)N1CCN(c2ccc(Nc3ncc4cc5n(c4n3)C3(CCCCC3)CNC5=O)nc2)CC1` [Lerociclib, lerociclib, reference compound], in data set [1], the IC50 amounted to 1420 nM.
For the compound `C[C@@H]1NC(=O)C2(CCCCC2)n2c1cc1cnc(Nc3ccc(S(N)(=O)=O)cc3)nc12` [Compound C], the IC50 was 796 nmol/L at CDK7; 50.2 nmol/L on CDK5; 41 nmol/L at CDK1/cyclin B1 [2] (setting [8]); 4 nmol/L at CDK2/cyclin A2; 214 nmol/L on CDK6/cyclin D3 (setting [9]); 5 nmol/L on CDK2/cyclin E1. Further, the half-life at 1 µmol/L was 15.3 min in data set [3] (setting [10]), below 10 min in [3] (setting [11]), below 10 min in data set [3] (setting [12]) and 23.4 min in data set [3] (setting [13]).
As for `CN1CCN(c2ccc(Nc3ncc4cc5n(c4n3)C3(CCCCC3)CNC5=O)nc2)CC1` [Trilaciclib, reference compound], the IC50 was determined as 4640 nmol/L on CDK7, 1240 nmol/L on CDK5 and 1710 nmol/L at CDK5/p25. For the same compound, the half-life at 1 µmol/L in data set [3] (setting [10]) is above 60 min; in [3] (both sexes, human, liver microsomes, longer than the duration of the experiment, read-out: calculated half-life (in parenthesis)), 66 min; in [3] (setting [11]), 28 min; in [3] (setting [12]), above 60 min; in data set [3] (male, Sprague-Dawley, rat, liver microsomes, longer than the duration of the experiment, read-out: calculated half-life (in parenthesis)) it was 73 min; in data set [3] (setting [13]) it was 5 min.
For `COCc1cc(C(=O)Nc2cc([C@H]3CC[C@@H](OC(=O)NC(C)C)C3)[nH]n2)n(C)n1` [PF-07104091, reference compound], the IC50 was 363 nM on CDK9/cyclin T1 [4] (Supp Fig S1C, read-out: IC50 (nM) CDK9/cyclin T1); 65.8 nmol/L at CDK1/cyclin B1 [2] (Supp Fig S1C, read-out: IC50 (nM) CDK1/B1); above 1000 nmol/L at CDK6/cyclin D3 (Supp Fig S1C, read-out: IC50 (nM) CDK6/cyclin D3); above 10000 nM at CDK9/cyclin T1 [5]; 1180 nM at CDK1/cyclin B1 [6]; 508 nM in the data set on MCF7 Fulv-resistant. For the same compound, the IC50 worked out at 562 nM with MCF7 Parent (Parent in DMSO), 232 nM in the data set with MCF7 Parent (Parent+Abema: 500 nM abemaciclib concurrently), 41.8 nM in the data set on MCF7 Abema-resistant and 125 nM in data set [7].
Take `NS(=O)(=O)c1ccc(Nc2ncc3cc4n(c3n2)C2(CCCCC2)CN=C4)cc1` [Compound B]: the IC50 at CDK7 stood at 33.5 nmol/L; at CDK5, 0.5 nmol/L; at CDK5/p25 it was 0.4 nmol/L; at CDK4/cyclin D1 it was 3.6 nmol/L; on CDK3/cyclin E1 it was 0.5 nmol/L; at CDK9/cyclin T1 [4] (ATP at Km, read-out: IC50 (nmol/L) CDK9/cyclin T1) it was 1.6 nM. Further, the IC50 at CDK1/cyclin B1 [2] (setting [8]) was 1.2 nmol/L; on CDK2/cyclin A2, 0.1 nmol/L; on CDK6/cyclin D3 (setting [9]), 8.6 nmol/L; at CDK2/cyclin E1, 0.1 nmol/L. The half-life at 1 µmol/L in [3] (setting [10]), in data set [3] (setting [11]), in [3] (setting [12]) and in data set [3] (setting [13]) was below 10 min throughout.
